Tests used:
human adipocytes = experiment: in vitro lipolysis test: glycerol release stimulated by 10 nM isoprenalin in cultured human adipocytes; assay type: cell-based; conditions: Adipocyte, 15 min preincubation, 4 h, read-out: % INCREASE IN LIPOLYSIS
Description: Determination of extracellular glycerol produced by lipolysis of adipocyte triglycerides.
The in vitro lipolysis test was conducted on human adipocytes obtained from primary cultures of their progenitors, preadipocytes (Promocell), by inducing differentiation. The actual adipocyte differentiation was established by assaying glycerol-3-phosphate dehydrogenase (an enzyme expressed in mature adipocytes, but not in preadipocytes) and the lipids accumulated at intracellular level, with Oil Red O (Sigma).
The PDE3 inhibitors were preincubated with the adipocytes at various concentrations for 15 min; 10 nM of isoprenalin, able to induce weak stimulation of lipolysis (25% of the maximum response obtained with isoprenalin 1 μM), was then added. After 4 h the culture medium was removed, and […].
Lipolytic activity was evaluated by determining the glycerol released into the extracellular medium following triglyceride hydrolysis.
Effect of Some PDE Inhibitors on Glycerol Release, Stimulated by 10 nM Isoprenalin, in Cultured Human Adipocytes

[1] = test system: cellulite in the upper outer part of the thighs; experiment: In vivo test: thigh circumference in healthy female adults with cellulite, cream vs base cream; set-up: species or system human; conditions: cream with 1% Milrinone, topical, twice a day for 2 months, 10 healthy female adults
Description: 10 healthy female adults presenting evident cellulite in the upper outer part of the thighs were examined. Each patient served as her own control for evaluation of efficacy and safety. […] Treatment with approx. 2-3 cm of cream, massaged in for 2-3 minutes until absorbed, was repeated twice a day every day for 2 months. […] The circumference of each thigh was measured periodically, two-thirds of the way between the knee and the greater trochanter, until the end of treatment. The reduction in circumference of the pharmacologically treated thigh compared with the untreated thigh was 2.9±0.7 cm, with a range of 1.3-4.7 cm.

[2] = Determination of the compound in the blood at the end of the observation period; assay type: in vivo, human; conditions: after topical cream with 1% Milrinone twice a day for 2 months
Description: 10 healthy female adults presenting evident cellulite in the upper outer part of the thighs were examined.
Each patient served as her own control for evaluation of efficacy and safety. The cream containing the active constituent (1% Milrinone) was spread on the outer part of one thigh, while the base cream (without the active constituent) was spread in the same area of the other thigh, in a randomised manner.
Treatment with approx. 2-3 cm of cream, massaged in for 2-3 minutes until absorbed, was repeated twice a day every day for 2 months.

| Structure (SMILES) | activation at 10 µM (human adipocytes) [%] | other results |
| --- | --- | --- |
| Nc1cc(-c2ccncc2)c[nH]c1=O [Amrinone] | 20 ± 6 | – |
| O=C1CN2Cc3c(ccc(Cl)c3Cl)N=C2N1 [Anagrelide, anagrelide] | 114 ± 11 | – |
| Cn1c(=O)c2c(ncn2C)n(C)c1=O [Caffeine, caffeine] | 10 ± 5 | – |
| O=C1CCc2cc(OCCCCc3nnnn3C3CCCCC3)ccc2N1 [Cilostazol, cilostazol] | 31 ± 9 | – |
| CSc1ccc(C(=O)c2[nH]c(=O)[nH]c2C)cc1 [Enoximone, enoximone] | 65 ± 4 | – |
| Cc1[nH]c(=O)c(C#N)cc1-c1ccncc1 [Milrinone, milrinone] | 151 ± 16 | reduction in circumference of the pharmacologically treated thigh compared with the untreated thigh ([1]; mean ± spread): 2.9±0.7 cm; reduction in circumference of the pharmacologically treated thigh compared with the untreated thigh, range ([1]; range across patients): 1.3-4.7 cm; presence of the compound in the blood [2]: did not detect the presence of the compound |
| COc1ccc(-c2nc3ccc(C4=NNC(=O)CC4C)cc3[nH]2)cc1 (stereo not drawn) [Pimobendan, pimobendan] | 159 ± 22 | – |
| Cn1c(=O)c2[nH]cnc2n(C)c1=O [Theophylline, theophylline] | 5 ± 4 | – |
| COc1cc2c(cc1OC)-c1c/c(=N\c3c(C)cc(C)cc3C)n(C)c(=O)n1CC2 [Trequinsin, trequinsin] | 276 ± 59 | – |
